This assay has as its system HDAC (HeLa cell nuclear extract, a mosaic of HDAC enzymes). In words: In vitro fluorescent histone deacetylase assay (Biomol HDAC fluorescent activity kit). It is filed as biochemical. The conditions noted are these: compound concentration 100 μM; HeLa cell nuclear extract as HDAC source; substrate 50 μM, 10 min, room temperature. The method, then:
Histone deacetylase (HDAC) activity assays were performed using the HDAC fluorescent activity assay/drug discovery kit (Biomol Research Laboratories, Plymouth Meeting, Pa.) essentially according to the manufacturer's instructions. The included HeLa cell nuclear extract, which contains a mosaic of HDAC enzymes and other nuclear factors, was used as the source of HDAC activity. The final substrate concentration in the assay mixture was 50 μM. The reaction was allowed to proceed for 10 min at room temperature before stopping the reaction. Test compounds were prepared as 20 mM stock solutions in DMSO (Molecular Biology grade, Sigma-Aldrich Co., St. Louis, Mo.) and stored at −70° C. Serial dilutions of test compounds were prepared in assay buffer immediately prior to testing. DMSO was determined in a separate trial to have no significant effect on the activity of this assay at concentrations up to 5%; the final DMSO concentration in the wells was no more than 2% and therefore DMSO effects were safely neglected. Assays were performed in white polystyrene 96-well half-area assay plates (Corning, Corning, N.Y.) and measured on a Wallace 1420 fluorescent plate reader (Wallac Oy, Turku, Finland) with an excitation wavelength of 355 nm, an emission wavelength of 460 nm, and a 1 sec signal averaging time.

Structures are written as SMILES.

Results on 9 compounds are retold here after patent US20050250784A1 (Miikana Therapeutics Corporation, priority 2004, published 2005).

Consider `Cc1cccc(Cl)c1S(=O)(=O)N1CCN(c2ncc(C(=O)NO)s2)CC1` [Example 238, 2-[4-(2-methyl-6-chlorophenylsulfonyl)-piperazin-1-yl]-thiazole-5-carboxylic acid hydroxyamide], for which the “% inhibition HDAC @ 100 μM” value turned out to be 100%.
On to `O=C(NO)c1cnc(N2CCN(S(=O)(=O)c3cc4ccccc4s3)CC2)s1` [Example 243, 2-[4-(2-benzothiphenesulfonyl)-piperazin-1-yl]-thiazole-5-carboxylic acid hydroxyamide], for which the “% inhibition HDAC @ 100 μM” value stood at 99%.
In the case of `CSc1nccc(-c2ccc(S(=O)(=O)N3CCN(c4ncc(C(=O)NO)s4)CC3)s2)n1` [Example 245, 2-[4-(2-{2-methylthiopyrimidine-4-yl}-5-thiophenesulfonyl)-piperazin-1-yl]-thiazole-5-carboxylic acid hydroxyamide], the “% inhibition HDAC @ 100 μM” value turned out to be 95%.
On to `O=C(NO)c1cnc(N2CCN(S(=O)(=O)c3ccc(-c4sccc4CN4CCCC4)cc3)CC2)s1` [Example 289], for which the “% inhibition HDAC @ 100 μM” value is on record as 99%.
For the compound `O=C(NO)c1cnc(N2CCN(S(=O)(=O)c3ccc(-c4ccc(CN5CCCC5)s4)cc3)CC2)s1` [Example 288], the “% inhibition HDAC @ 100 μM” value turned out to be 99%.
In the case of `O=C(NO)c1cnc(N2CCN(S(=O)(=O)CCc3ccccc3)CC2)s1` [Example 294, 2-[4-(phenethylsulfonyl)piperazin-1-yl]-thiazole-5-carboxylic acid hydroxyamide], the “% inhibition HDAC @ 100 μM” value amounted to 98%.
Then `O=C(NO)c1cnc(N2CCN(S(=O)(=O)c3ccc4nsnc4c3)CC2)s1` [Example 246, 2-[4-(2,1,3-benzothiadiazole-5-sulfonyl)-piperazin-1-yl]-thiazole-5-carboxylic acid hydroxyamide], with 98%; and `O=C(NO)c1cnc(N2CCN(S(=O)(=O)c3ccc(CN4CCCC4)cc3)CC2)s1` [Example 305], with 99%.
In the case of `O=C(NO)c1cnc(N2CCN(S(=O)(=O)c3ccc(-c4cccnc4)cc3)CC2)s1` [Example 293, 2-[4-{(3-pyrido)benzenesulfonyl}-piperazin-1-yl]-thiazole-5-carboxylic acid hydroxyamide] it was 100%.
